The source of these data is patent US20210078958A1, “QUINAZOLINE DERIVATIVE AND USE THEREOF” (MEDSHINE DISCOVERY INC., priority 2017, published 2021).

One data set has as its target HER1 (ErbB1) (Homo sapiens, UniProt P00533). The data set can be described thus: in vitro enzyme activity, HER1 (ErbB1). Format: biochemical. Particulars: human ErbB1, [γ-33P]ATP, poly(Glu, Tyr) substrate. The protocol: (§1) The purpose of this assay is to detect the in vitro inhibitory activity of compounds on HER1 (ErbB1), HER2 (ErbB2), and HER4 (ErbB4). The enzymes used in this assay are human ErbB1, ErbB2 and ErbB4. Eurofins Pharma Discovery Service provided the method for activity detection.
(§2) Steps and Method of the Assay (96-Well Plate):
(§3) A buffer solution of the test compounds in a dilution of 5-fold (5 μL), polypeptide substrate poly(Glu, Tyr) (4:1) (2.5 μL), ErbB (4-20 ng, 2.5 μL), MnCl2 (50 mM, 1.25 μL), dH2O (3.75 μL), and [γ-^33P]ATP (10 μL) were added, and incubated at 30° C. for 10 minutes. The reaction was terminated by adding 3% phosphoric acid. 10 μL of the sample was taken and transferred to Filtermate A. The filter disc was washed 3 times with 75 mM phosphoric acid and once with methanol. The filter disc was transferred to a sealed plastic bag and the scintillation mixture (4 mL) was added. The intensity of the emitted photon was detected by a scintillation luminescence counter. The CPM (times/min) of the enzyme sample was compared with the CPM of the internal control sample. The level of photon intensity reflected the degree of the tyrosine kinase activity.

For a further data set, the target named is HER2 (ErbB2) (Homo sapiens, UniProt P04626). The data set can be described thus: in vitro enzyme activity, HER2 (ErbB2). To be noted: human ErbB2, [γ-33P]ATP, poly(Glu, Tyr) substrate. Format: biochemical. The protocol:
as §1, §2, §3

A further data set deals with HER4 (ErbB4) (Homo sapiens, UniProt Q15303). The data set can be described thus: in vitro enzyme activity, HER4 (ErbB4). The data set is classed as biochemical. To be noted: human ErbB4, [γ-33P]ATP, poly(Glu, Tyr) substrate. The protocol: as §1, §2, §3
The test system of another data set is NCI-N87 cell. The data set can be described thus: inhibitory activity on cell proliferation (Cell-Titer-Glo), NCI-N87. Format: cell-based. Particulars: Homo sapiens. The text has this: Purpose of the assay: to detect the inhibitory activity of the test compounds on cell proliferation.
Principle of the assay: the luciferase in a Cell-Titer-Glo reagent produces oxidized luciferin with luciferin, oxygen and ATP as reaction substrates, and releases energy in the form of light. Since the luciferase reaction requires ATP, the total amount of light generated by the reaction is proportional to the total amount of ATP that reflects cell viability.
Cell Titer-Glo cell viability assay kit with luminescence (Promega #G7573)
According to the schematic diagram of the cell seed plate, cells were seeded in a 384- or 96-well plate at a density of 1000 cells per well and 25 μL per well, and 25 μL of PBS was added to the wells near edge of the place where no cells were seeded.
(1) The stock solution of the compounds has a concentration of 10 mM, and the compounds were diluted with DMSO to an initial concentration of 4 mM. The compounds were added to the plate with stock solution of compounds, 9 μL per well.
(2) The compounds were diluted with an ECHO liquid workstation, where 125 nL of compounds were added to each well of the cell plate, 125 nL of DMSO was added to each of the cell well in columns 2 and 23, and 125 nL of DMSO was added to each PBS well in columns 1 and 24.
2.3 After addition of the compounds, the cell plate was centrifuged at 1000 rpm for 1 min, and then placed in a 37° C., 5% CO2 incubator for incubation for 3 days.
The cell plate was taken out from the incubator and equilibrated at room temperature for 30 minutes. 25 μL of Cell-Titer-Glo reagent was added to each well, shaken for one minute to allow well mixed, and centrifuged at 1000 rpm for 1 minute. After 10 minutes, the plate was read on PerkinElmer Envision, and the […] reading time was set to 0.2 second.

Data set [1] concerns subcutaneous xenograft tumor of human gastric cancer NCI-N87 cells. Format: in vivo. Particulars: for Tumor volume (mm3) (Day 21) / T/C (%) / TGI (%): 3 mg/kg, NCI-N87 xenograft; for Tumor volume (mm3) (Day 21): Mean ± SEM; for T/C (%) / TGI (%): day 21; for body weight of test animals (reference index for drug toxicity): mouse, in vivo. The protocol:
Purpose of the assay: to evaluate the in vivo efficacy of compounds to be tested on subcutaneous xenograft tumor of human gastric cancer NCI-N87 cells in a BALB/c nude mouse model.
Animals of the assay: female BALB/c nude mice, 6-8 weeks old, weighted 18-22 grams; supplier: shanghai sippr bk laboratory animals Ltd.
Human gastric cancer NCI-N87 cells were cultured in monolayer in vitro. The culture conditions were RPMI-1640 medium plus 10% fetal bovine serum, 100 U/mL penicillin, 100 μg/mL streptomycin and 2 mM glutamine, 37° C., 5% CO2. The passaging was performed by the conventional digestion with trypsin-EDTA twice a week. When the cell saturation was 80%-90%, the cells were collected, counted and inoculated.
0.2 mL (10×10^6 cells) of NCI-N87 cells were inoculated subcutaneously on the right back of each nude mouse (PBS+Matrigel, 1:1). When the average tumor volume reached 145 mm^3, administration to each group was started.
The test compounds were formulated into a 0.3 mg/mL clear solution in the solvents of 10% NMP (N-methylpyrrolidone)+10% ethylene glycol stearate+80% water.
The assay index is to investigate whether tumor growth is inhibited, delayed or cured. Tumor diameter was measured twice a week with a vernier caliper. The calculation formula of tumor volume is: V=0.5a×b^2, wherein a and b represent the long and short diameters of tumor, respectively.
The antitumor efficacy of the compounds were evaluated by TGI (%) or relative tumor proliferation rate T/C (%). TGI (%) reflects the tumor growth inhibition rate. TGI (%) is calculated as follows: TGI (%)=[1−(average tumor volume at the end of administration for a certain treatment group−average tumor volume at the beginning of administration for this treatment group)/(average tumor volume at the end of treatment for a solvent control group−average tumor volume at the beginning of administration for this solvent control group)][…].
Relative tumor proliferation rate T/C (%): the calculation formula is as follows: T/C %=TRTV/CRTV (TRTV: RTV for the treatment group; CRTV: RTV for the negative control group). Relative tumor volume (RTV) is calculated based on tumor measurement results. The calculation formula is RTV=Vt/V0, wherein V0 is the average tumor volume measured at the beginning of administration (i.e., d0) to each group, Vt is the average tumor volume at a certain measurement, and the data for TRTV and CRTV were taken on the same day.
The tumor weight was measured after the assay is over and the T/C weight percentage was calculated. T weight and C weight represent the tumor weight of the administration group and the vehicle control group, respectively.
Statistical analysis included the mean and standard error (SEM) of tumor volume at each time point in each group. […] The comparison between two groups was analyzed by T-test, and the comparison among three or more groups was analyzed by one-way ANOVA. […] All data analysis was carried out with SPSS 17.0. p<0.05 was considered a significant difference.

The mark [2] stands for this setting: NCI-N87, footnote d: initial dilution concentration of compounds is 10 μM.
The mark [3] stands for this setting: NCI-N87, 72 h, incubation for 3 days, Cell-Titer-Glo.

HER1 (ErbB1), sequence (P00533 25-1210): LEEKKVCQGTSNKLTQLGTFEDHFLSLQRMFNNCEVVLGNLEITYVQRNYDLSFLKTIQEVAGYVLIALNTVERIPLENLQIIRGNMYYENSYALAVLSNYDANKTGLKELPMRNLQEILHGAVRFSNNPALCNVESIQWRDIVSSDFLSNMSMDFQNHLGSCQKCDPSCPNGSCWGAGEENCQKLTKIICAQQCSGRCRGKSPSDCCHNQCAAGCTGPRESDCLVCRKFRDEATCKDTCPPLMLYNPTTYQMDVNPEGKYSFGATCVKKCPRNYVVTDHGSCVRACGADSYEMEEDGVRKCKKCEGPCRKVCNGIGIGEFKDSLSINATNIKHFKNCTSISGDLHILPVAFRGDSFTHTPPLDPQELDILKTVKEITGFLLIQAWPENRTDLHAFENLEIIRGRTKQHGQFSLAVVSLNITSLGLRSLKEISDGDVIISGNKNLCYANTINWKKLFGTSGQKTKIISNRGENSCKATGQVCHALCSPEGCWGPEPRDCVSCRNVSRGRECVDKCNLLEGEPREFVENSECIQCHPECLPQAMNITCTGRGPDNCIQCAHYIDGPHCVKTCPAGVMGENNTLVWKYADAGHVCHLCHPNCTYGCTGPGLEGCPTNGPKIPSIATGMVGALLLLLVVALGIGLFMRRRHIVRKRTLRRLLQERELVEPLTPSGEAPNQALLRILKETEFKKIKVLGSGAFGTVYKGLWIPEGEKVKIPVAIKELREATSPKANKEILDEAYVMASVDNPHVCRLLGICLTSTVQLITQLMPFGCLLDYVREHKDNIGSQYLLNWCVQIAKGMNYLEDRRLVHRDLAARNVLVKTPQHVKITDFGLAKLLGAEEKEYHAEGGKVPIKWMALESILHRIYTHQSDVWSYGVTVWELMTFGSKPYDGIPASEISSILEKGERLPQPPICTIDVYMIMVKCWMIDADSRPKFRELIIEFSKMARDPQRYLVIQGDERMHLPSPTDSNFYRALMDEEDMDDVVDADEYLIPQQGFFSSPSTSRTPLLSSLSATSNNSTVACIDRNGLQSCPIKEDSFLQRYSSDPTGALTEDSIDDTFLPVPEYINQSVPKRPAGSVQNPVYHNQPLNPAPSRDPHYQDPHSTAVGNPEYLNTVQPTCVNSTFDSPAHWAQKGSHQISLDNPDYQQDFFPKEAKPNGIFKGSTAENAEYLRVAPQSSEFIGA
HER4 (ErbB4), sequence (Q15303 26-1308): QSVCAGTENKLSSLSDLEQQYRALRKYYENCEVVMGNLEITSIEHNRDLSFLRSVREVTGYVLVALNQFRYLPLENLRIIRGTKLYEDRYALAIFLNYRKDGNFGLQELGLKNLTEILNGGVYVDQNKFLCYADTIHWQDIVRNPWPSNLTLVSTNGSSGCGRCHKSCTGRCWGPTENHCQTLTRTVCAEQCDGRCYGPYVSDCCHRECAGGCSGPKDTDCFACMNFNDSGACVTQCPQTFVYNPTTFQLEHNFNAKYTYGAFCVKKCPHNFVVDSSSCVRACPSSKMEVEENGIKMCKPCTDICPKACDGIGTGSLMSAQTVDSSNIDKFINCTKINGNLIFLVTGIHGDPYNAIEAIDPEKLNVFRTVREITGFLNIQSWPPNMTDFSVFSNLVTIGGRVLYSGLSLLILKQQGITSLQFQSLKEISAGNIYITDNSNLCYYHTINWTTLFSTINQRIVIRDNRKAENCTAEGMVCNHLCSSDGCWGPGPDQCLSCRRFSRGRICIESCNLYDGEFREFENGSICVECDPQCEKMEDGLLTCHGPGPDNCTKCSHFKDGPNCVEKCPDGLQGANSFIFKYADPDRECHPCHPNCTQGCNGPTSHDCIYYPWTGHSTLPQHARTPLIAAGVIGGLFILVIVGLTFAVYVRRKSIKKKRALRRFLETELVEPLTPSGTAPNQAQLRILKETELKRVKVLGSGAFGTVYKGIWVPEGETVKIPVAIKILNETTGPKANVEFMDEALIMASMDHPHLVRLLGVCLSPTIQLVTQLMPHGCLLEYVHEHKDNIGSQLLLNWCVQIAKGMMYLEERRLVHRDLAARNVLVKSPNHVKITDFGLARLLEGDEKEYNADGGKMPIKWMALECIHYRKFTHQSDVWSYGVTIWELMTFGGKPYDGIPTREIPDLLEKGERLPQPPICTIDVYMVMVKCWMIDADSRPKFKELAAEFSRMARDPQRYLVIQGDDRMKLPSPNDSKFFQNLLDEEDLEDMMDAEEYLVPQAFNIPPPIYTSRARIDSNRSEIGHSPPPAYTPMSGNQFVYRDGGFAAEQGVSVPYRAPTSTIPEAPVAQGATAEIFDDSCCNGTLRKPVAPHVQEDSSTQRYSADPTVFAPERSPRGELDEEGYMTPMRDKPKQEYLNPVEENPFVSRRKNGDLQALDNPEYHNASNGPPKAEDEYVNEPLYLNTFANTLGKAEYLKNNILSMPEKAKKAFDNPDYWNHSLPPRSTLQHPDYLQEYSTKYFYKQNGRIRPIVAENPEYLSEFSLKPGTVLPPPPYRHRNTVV
HER2 (ErbB2), sequence (P04626 23-1255): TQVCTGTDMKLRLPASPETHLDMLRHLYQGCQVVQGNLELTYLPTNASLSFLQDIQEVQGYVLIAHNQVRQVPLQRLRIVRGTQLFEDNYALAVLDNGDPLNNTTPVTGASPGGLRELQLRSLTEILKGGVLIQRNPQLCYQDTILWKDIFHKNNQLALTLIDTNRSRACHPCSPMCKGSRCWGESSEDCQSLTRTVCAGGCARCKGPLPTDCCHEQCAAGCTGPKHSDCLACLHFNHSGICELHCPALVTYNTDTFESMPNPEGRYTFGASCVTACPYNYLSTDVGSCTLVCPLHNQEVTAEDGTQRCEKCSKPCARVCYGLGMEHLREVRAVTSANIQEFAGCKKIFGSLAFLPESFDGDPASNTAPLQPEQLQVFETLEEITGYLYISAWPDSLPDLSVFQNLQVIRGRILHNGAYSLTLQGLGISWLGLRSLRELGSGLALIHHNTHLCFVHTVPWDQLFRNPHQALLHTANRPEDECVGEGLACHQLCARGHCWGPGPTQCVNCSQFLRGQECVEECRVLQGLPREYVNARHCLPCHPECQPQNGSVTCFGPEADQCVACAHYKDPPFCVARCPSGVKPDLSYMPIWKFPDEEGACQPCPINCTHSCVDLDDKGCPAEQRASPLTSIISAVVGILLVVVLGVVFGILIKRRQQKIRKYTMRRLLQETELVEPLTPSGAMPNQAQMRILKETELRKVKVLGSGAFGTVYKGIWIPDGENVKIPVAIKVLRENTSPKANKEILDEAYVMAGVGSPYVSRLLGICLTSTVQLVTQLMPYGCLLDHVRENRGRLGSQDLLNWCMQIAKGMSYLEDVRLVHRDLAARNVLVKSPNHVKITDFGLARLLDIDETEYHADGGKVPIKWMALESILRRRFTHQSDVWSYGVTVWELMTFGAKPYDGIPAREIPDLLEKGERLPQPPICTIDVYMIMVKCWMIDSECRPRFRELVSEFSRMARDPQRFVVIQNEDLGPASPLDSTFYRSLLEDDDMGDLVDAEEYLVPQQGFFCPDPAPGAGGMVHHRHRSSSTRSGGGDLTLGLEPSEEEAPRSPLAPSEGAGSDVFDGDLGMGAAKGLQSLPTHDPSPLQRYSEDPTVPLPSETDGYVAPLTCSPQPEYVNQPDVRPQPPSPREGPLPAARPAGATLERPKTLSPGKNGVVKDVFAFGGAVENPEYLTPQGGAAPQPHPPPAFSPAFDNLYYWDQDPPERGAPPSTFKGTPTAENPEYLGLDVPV

Usually IC50 stands for the concentration that gives 50% inhibition. For the compound `C=CC(=O)N1C[C@H]2C[C@@H](C1)[C@H]2Oc1cc2c(Nc3ccc(Cl)c(Cl)c3F)ncnc2cc1OC` [Example 1], half-maximal inhibition against HER1 (ErbB1) (IC50) required 2 nM. The compound also showed an IC50 on HER2 (ErbB2) of 3 nM. At HER4 (ErbB4), this compound displayed a 50% inhibitory concentration (IC50) of 10 nM. Besides, the IC50 in the data set with NCI-N87 cell (setting [2]) was less than 1.5 nM. In data set [1], the “Tumor volume (mm3) (Day 21)” value worked out at 122 ± 11 mm3, the “T/C (%)” value turned out to be 16.62%, the “TGI (%)” value is 103.98% and the “body weight of test animals (reference index for drug toxicity)” value is given as “significantly better than that of the control compound Poziotinib”.
On to `C=CC(=O)N1C[C@H]2C[C@@H](C1)[C@H]2Oc1cc2c(Nc3ccc(F)c(Cl)c3)ncnc2cc1OC` [Example 3], for which the values for the IC50 at HER1 (ErbB1), against HER2 (ErbB2) and at HER4 (ErbB4) were 2 nM, 5 nM and 17 nM, respectively.
With `C=CC(=O)N1C[C@H]2C[C@@H](C1)[C@H]2Oc1cc2c(Nc3ccc(C#N)c(Cl)c3)ncnc2cc1OC` [Example 4], the concentration for half-maximal inhibition (IC50) at HER1 (ErbB1) came to 2 nM; at HER2 (ErbB2), 3 nM; against HER4 (ErbB4), 13 nM.
The matching figures for `C=CC(=O)N1C[C@H]2C[C@@H](C1)[C@H]2Oc1cc2c(Nc3cccc(Cl)c3F)ncnc2cc1OC` [Example 5]: 9 nM, 24 nM and 157 nM.
Taken in the same sequence, the figures for `C=CC(=O)N1C[C@H]2C[C@@H](C1)[C@H]2Oc1cc2c(Nc3ccc(OC(F)(F)F)c(Cl)c3)ncnc2cc1OC` [Example 6] were 2 nM, 4 nM and 17 nM.
In the case of `C=CC(=O)N1[C@@H]2CC[C@H]1C[C@@H](Oc1cc3c(Nc4ccc(Cl)c(Cl)c4F)ncnc3cc1OC)C2` [Example 7], the IC50 against HER1 (ErbB1) came to 40 nM. The same compound gave a half-inhibitory concentration (IC50) against HER2 (ErbB2) of 69 nM. Also, at HER4 (ErbB4), the IC50 turned out to be 61 nM. Further, the IC50 in the data set on NCI-N87 cell (setting [2]) amounted to 1.5 nM. In addition, in data set [1], the “Tumor volume (mm3) (Day 21)” value came out at 188 ± 9 mm3, the “T/C (%)” value turned out to be 26.10%, the “TGI (%)” value is reported as 92.63% and the “body weight of test animals (reference index for drug toxicity)” value was “significantly better than that of the control compound Poziotinib”.
In the case of `C=CC(=O)N1[C@@H]2CC[C@H]1C[C@H](Oc1cc3c(Nc4ccc(Cl)c(Cl)c4F)ncnc3cc1OCC(F)(F)F)C2` [Example 20], the IC50 on HER1 (ErbB1) came out at 18 nM; against HER2 (ErbB2), 11 nM; against HER4 (ErbB4), 10 nM; in the data set on NCI-N87 cell (setting [3]) it was 0.6 nM.
Take `C=CC(=O)N1[C@@H]2CC[C@H]1C[C@H](Oc1cc3c(Nc4ccc(Cl)c(Cl)c4F)ncnc3cc1OCCOC)C2` [Example 22]: the half-inhibitory concentration (IC50) against HER1 (ErbB1) turned out to be 12 nM; against HER2 (ErbB2) it was 7 nM; against HER4 (ErbB4) it was 3 nM.
As for `C=CC(=O)N1[C@@H]2CC[C@H]1C[C@H](Oc1cc3c(Nc4ccc(Cl)c(Cl)c4F)ncnc3cc1OCC(=O)NC)C2` [Example 23], the half-maximal inhibitory concentration (IC50) on HER1 (ErbB1) was found to be 8 nM; on HER2 (ErbB2) it was 4 nM; against HER4 (ErbB4), 2 nM; in the data set on NCI-N87 cell (setting [3]), 0.14 nM.
Taken in the same sequence, the figures for `C=CC(=O)N1[C@@H]2CC[C@H]1C[C@H](Oc1cc3c(Nc4ccc(Cl)c(Cl)c4F)ncnc3cc1OCCCN1CCOCC1)C2` [Example 24] were 10 nM, 6 nM, 3 nM and 0.17 nM.
As to `C=CC(=O)N1[C@@H]2CC[C@H]1C[C@H](Oc1cc3c(Nc4ccc(Cl)c(Cl)c4F)ncnc3cc1OCCO)C2` [Example 25], the IC50 is 6 nM on HER1 (ErbB1), 3 nM against HER2 (ErbB2), 6 nM against HER4 (ErbB4) and 0.19 nM with NCI-N87 cell (setting [3]).
Regarding `C=CC(=O)N1[C@@H]2CC[C@H]1C[C@H](Oc1cc3c(Nc4ccc(Cl)c(Cl)c4F)ncnc3cc1O[C@H]1CCOC1)C2` [Example 26], the IC50 came to 8 nM against HER1 (ErbB1), 5 nM at HER2 (ErbB2), 4 nM against HER4 (ErbB4) and 0.24 nM in the data set on NCI-N87 cell (setting [3]).
The matching figures for `C=CC(=O)N1[C@@H]2CC[C@H]1C[C@H](Oc1cc3c(Nc4ccc(Cl)c(Cl)c4F)ncnc3cc1O[C@@H]1CCOC1)C2` [Example 27]: 16 nM, 5 nM, 3 nM and 0.31 nM.
The matching figures for `C=CC(=O)N1[C@@H]2CC[C@H]1C[C@H](Oc1cc3c(Nc4ccc(Cl)c(Cl)c4)ncnc3cc1OC)C2` [Example 32]: 15 nM, 5 nM, 3 nM and 0.29 nM.
With `C=CC(=O)N1[C@@H]2CC[C@H]1C[C@H](Oc1cc3c(Nc4cccc(Cl)c4F)ncnc3cc1OC)C2` [Example 33], the half-maximal inhibitory concentration (IC50) on HER1 (ErbB1) stood at 7 nM; against HER2 (ErbB2), 6 nM; against HER4 (ErbB4), 3 nM.
On to `C=CC(=O)N1[C@@H]2CC[C@H]1C[C@H](Oc1cc3c(Nc4ccc(F)c(Cl)c4)ncnc3cc1OC)C2` [Example 40], for which the IC50 against HER1 (ErbB1) turned out to be 11 nM; at HER2 (ErbB2), 5 nM; against HER4 (ErbB4), 2 nM; in the data set on NCI-N87 cell (setting [3]) it was 0.34 nM.
`C=CC(=O)N1[C@@H]2CC[C@H]1C[C@H](Oc1cc3c(Nc4ccc(Cl)c(Cl)c4F)ncnc3cc1OC1COC1)C2` [Example 42] gave an IC50 in the data set with NCI-N87 cell (setting [3]) of 0.92 nM.
In the case of `C=CC(=O)N1[C@@H]2CC[C@H]1C[C@H](Oc1cc3c(Nc4ccc(Cl)c(Cl)c4F)ncnc3cc1OCCCO)C2` [Example 44], the half-inhibitory concentration (IC50) at HER1 (ErbB1) worked out at 5 nM; against HER2 (ErbB2), 4 nM; at HER4 (ErbB4) it was 3 nM; in the data set on NCI-N87 cell (setting [3]), 0.33 nM.
Turning to `C=CC(=O)N1[C@@H]2CC[C@H]1C[C@H](Oc1cc3c(Nc4ccc(Cl)c(Cl)c4F)ncnc3cc1OCCC(C)(C)O)C2` [Example 45], the IC50 against HER1 (ErbB1) came to 8 nM; at HER2 (ErbB2) it was 7 nM; on HER4 (ErbB4), 10 nM; in the data set with NCI-N87 cell (setting [3]), 0.69 nM.
